Laboratory results published in PMC4129416, “YLT192, a Novel, Orally Active Bioavailable Inhibitor of VEGFR2 Signaling with Potent Antiangiogenic Activity and Antitumor Efficacy in Preclinical Models” (Scientific Reports, 2014).

Columns and labels:
[1] = tested on: HUVEC; assay: EdU incorporation assay, VEGF165-stimulated HUVEC; assay type: cell-based, human
Protocol: The inhibition effect of YLT192 on VEGF165-stimulated HUVEC growth was examined using MTT assay.
EdU is a thymidine analogue used to label proliferating cells which can incorporate into replication DNA when cells are dividing. Cells growing in 96-well plates were treated with different concentrations of YLT192 for 24 hours, and then assayed with Cell-Light™ EdU DNA Cell Proliferation Kit according to the manufacture's instructions. Each assay was replicated 3 times.
Supplementary Figure S2. YLT192 inhibited VEGF-stimulated HUVECs proliferation in the EdU incorporation assay. The EdU-positive(red ﬂuorescent staining) cells and Hoechst staining(blue ﬂuorescent staining) cells represented proliferating and total cells, respectively(100×). Quantification was shown on the right panels. Data represent the mean ± SEM of three different experiments. Each experiment was performed in duplicate. *P<0.05, **P<0.01. […]

[2] = tested on: PANC-1; assay: Inhibition of tumor cell growth; assay type: cell-based; details: PANC-1, human pancreatic cancer; 48 hour treatment; means ± SD, n=3
Protocol: The proliferative inhibitory ability of YLT192 on tumor cells was investigated. […] Inhibition of cell proliferation is a possible approach for cancer treatment. EdU incorporation assay was performed to investigate the anti-proliferative effects of YLT192 against U251 and HCT116 cells.
treatment with YLT192. Data are means ± SD, n=3.
cell line cell type IC50(μM) […]

[3] = molecular target: VEGFR2 (Homo sapiens, UniProt P35968); assay: Radiometric kinase assay (Millipore Kinase Profile Service); assay type: biochemical; design: purchased Millipore (Kinase Profile Service, UK); details: means ± SD, two independent experiments, read-out: inhibition rate at 1 μM (%)
Protocol: YLT192 was designed and synthesized in the State Key Laboratory of Biotherapy, Sichuan University (Sichuan, China). Its structural formula and synthesis route was shown in Fig. 1A and Supplementary Figure S1, respectively. The kinase inhibitory activity of YLT192 was measured by the use of radiometric assays provided by Kinase Profile Service (Millipore, UK). The effects of YLT192 on kinase activity were detected using the scintillation proximity assay method at an enzymatic level. […] In addition, the inhibitory activity of YLT192 was examined against platelet-derived growth factor receptor (PDGFR)-related kinases because of their structural similarity to the VEGFR2. […] Moreover, excellent selectivity for VEGFR2 was evident compared with a range of unrelated tyrosine and serine/threonine kinases, including fibroblast growth factor receptor 3, polo-like kinase 1, aurora-A, Axl, MET, protein kinase A, c-RAF etc.

[4] = tested on: HUVEC; assay: Wound healing migration assay; assay type: cell-based, human; details: 24 hours
Description: Cell migration is essential for ECs in angiogenesis and for cancer cells in tumor growth and metastasis. […] Cell invasion is essential for EC in angiogenesis, so we performed transwell assays to evaluate the ability of HUVEC to pass through the Matrigel and membrane barriers of the transwell in the presence of various concentrations of YLT192 or vehicle.
Figure 2 Effects of YLT192 on HUVECs proliferation, migration, invasion and tube formation. […] Cells were wounded by the pipette and then treated with various concentrations of compounds for 24 hours. Migrated cells were quantified by manual counting (50×). […] The bottom chambers of the transwells were filled with 600 μL EGM2 containing various growth factors while the top chambers were seeded with 4 × 10^4 HUVECs in EBM2 and treated with different concentrations of compounds for 24 hours. Cells invaded through the membrane were stained and quantified (100×). […] HUVECs were seeded on Matrigel layer and treated with different concentrations of compounds. HUVECs tube formation was assessed 6 hours later (50×). One representative experiment of three is shown. For (A), (B) and (C), data represent the mean ± SEM of three different experiments. Each experiment was performed in duplicate.*P < 0.05, **P < 0.01. (D) YLT192 inhibited VEGF-induced phosphorylation of VEGFR2 and its downstream signal regulator p44/42 MAPK, STAT3 and AKT in HUVECs. One representative Western blot of three is presented. Each has the expression of β-actin as internal control. The full size blots were shown in the Supplemental Figure S5 online. (E) Cellular thermal shift assay showing VEGFR2 target engagement by YLT192 in intact HUVECs. One representative Western blot of two is presented. The full size blots were shown in the Supplemental Figure S6 online. […]
HUVECs were allowed to grow into full confluence in 24-well plates and then wounded by scratching with pipette tips and washed with PBS. […] Images were taken using a ZEISS digital microscope and invading cells were counted by manual counting. […]

VEGFR2, sequence (P35968 20-1356): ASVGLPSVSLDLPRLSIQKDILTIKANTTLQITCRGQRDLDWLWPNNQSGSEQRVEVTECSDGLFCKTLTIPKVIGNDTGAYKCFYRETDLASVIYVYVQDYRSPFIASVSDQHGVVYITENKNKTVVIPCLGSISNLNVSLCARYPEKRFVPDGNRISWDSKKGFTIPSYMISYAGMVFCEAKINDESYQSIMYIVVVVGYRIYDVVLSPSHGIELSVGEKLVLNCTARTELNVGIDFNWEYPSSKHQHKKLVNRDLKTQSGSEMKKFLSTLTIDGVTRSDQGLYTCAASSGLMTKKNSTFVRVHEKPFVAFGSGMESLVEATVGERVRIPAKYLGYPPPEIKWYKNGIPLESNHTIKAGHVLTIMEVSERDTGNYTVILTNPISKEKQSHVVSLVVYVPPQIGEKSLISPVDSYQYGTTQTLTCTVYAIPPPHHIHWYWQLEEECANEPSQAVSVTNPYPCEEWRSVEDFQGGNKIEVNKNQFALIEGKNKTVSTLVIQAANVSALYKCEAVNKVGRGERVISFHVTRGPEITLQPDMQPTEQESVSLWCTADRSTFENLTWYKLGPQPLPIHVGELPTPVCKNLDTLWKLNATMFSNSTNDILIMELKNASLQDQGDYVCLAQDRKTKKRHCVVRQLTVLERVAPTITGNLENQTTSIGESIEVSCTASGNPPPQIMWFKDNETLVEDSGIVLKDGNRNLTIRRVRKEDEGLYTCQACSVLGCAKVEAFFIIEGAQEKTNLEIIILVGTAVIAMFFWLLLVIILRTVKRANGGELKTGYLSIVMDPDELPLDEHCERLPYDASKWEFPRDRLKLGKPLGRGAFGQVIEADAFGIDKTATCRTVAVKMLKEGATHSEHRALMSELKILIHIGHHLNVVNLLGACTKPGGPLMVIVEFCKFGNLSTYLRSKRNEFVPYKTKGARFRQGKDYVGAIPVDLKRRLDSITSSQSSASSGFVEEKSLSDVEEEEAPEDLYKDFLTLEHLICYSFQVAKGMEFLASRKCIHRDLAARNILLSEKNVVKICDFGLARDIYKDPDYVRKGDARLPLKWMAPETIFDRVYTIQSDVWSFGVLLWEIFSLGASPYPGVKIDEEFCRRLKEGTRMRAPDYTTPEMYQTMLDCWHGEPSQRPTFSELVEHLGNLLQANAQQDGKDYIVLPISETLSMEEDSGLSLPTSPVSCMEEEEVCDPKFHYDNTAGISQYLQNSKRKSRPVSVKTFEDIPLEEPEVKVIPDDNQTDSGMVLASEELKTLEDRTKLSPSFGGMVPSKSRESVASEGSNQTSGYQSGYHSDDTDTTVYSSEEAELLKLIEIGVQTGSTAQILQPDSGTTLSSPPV

SMILES: CNC(=O)c1cc(Oc2ccc(NC(=O)c3cccc(OC)c3)cc2)ccn1 [YLT192]
- VEGF165-stimulated HUVEC proliferation, EdU incorporation [1]: inhibited VEGF165-stimulated HUVEC proliferation
- IC50 [2]: 9.8 ± 1.9 µM
- inhibition at 1 µM [3]: 93 ± 3%
- migration of HUVEC ([4]; 2.5 μM, wound healing): strongly inhibited
- HUVECs migration in wound healing assay ([4]; various concentrations): inhibited HUVECs migration
